We go through 2 compounds from patent US4868176A, “Novel imidazobenzodiazepines” (Roussel Uclaf, priority 1987, dated 1989).

The subject of the experiment is leptazol induced seizures in mice. In words: potentiation of the threshold of leptazol induced seizures in mice. The class given is in vivo. As to conditions: ip. How it is done: Potentiation of the threshold of leptazol induced seizures in mice by active compounds was measured by the method of Lichfiel et al (J. Pharmacol. Exp. Ther. (1949) Vol. 96 Page. 99).

For the compound `CN1Cc2c(C(=O)C3CC3)ncn2-c2ccccc2C1=O` [Compound 1, 3-(5,6-dihydro-5-methyl-6-oxo-4H-imidazo[1,5a][1,4]benzodiazepinyl)-cyclopropylmethanone], the ED50 (Mus musculus) lay within 1 to 2 mg/kg. Turning to `CN1Cc2c(C(=O)C3CC3)ncn2-c2ccc(Cl)cc2C1=O` [Compound 2, (8-Chloro-5,6-dihydro-5-methyl-6-oxo-4H-imidazo[1,5-a][1,4]benzodiazepin-3-yl)-cyclopropylmethanone], the “Leptazol Seizures ED50” value is “Not active”.

Broadly, the ED50 is the midpoint of the dose-response relation.
